Data from patent US8980848B2, “Flavonoid dimers and their use” (The Hong Kong Polytechnic University, priority 2010, dated 2015).

Legend:
[1] = Tumor cell line cytotoxicity of flavonoid dimers, LCC6MDR; assay type: cell-based, human; details: human, LCC6MDR cells, IC50 of compound alone
Experimental: (§1) (b) Tumor Cell Line Cytotoxicity. The tumor cytotoxicity assays of flavonoid dimers were performed against LCC6, LCC6MDR and L929 cell lines. […] In brief, LCC6, LCC6MDR and L929 cells were seeded into 96-well flat bottom microtiter plate at 1×10^4 cells per well in a final volume of 100 μL media, respectively. A graded dose of flavonoid dimers was added into wells. The plate was incubated at 37° C. for 72 hrs at the atmosphere 5% CO2 in the air. The % of survivors was determined.

[2] = Tumor cell line cytotoxicity of flavonoid dimers, LCC6; assay type: cell-based, human; details: human, LCC6 cells, IC50 of compound alone
Experimental: as §1

[3] = Cytotoxicity of flavonoid dimers, L929 mouse fibroblast; assay type: cell-based; details: mouse, L929 fibroblast cells, IC50 of compound alone, 72 hrs, mouse fibroblast
Experimental: as §1

Pgp (LCC6MDR cells) = Pgp (LCC6MDR cells) (Homo sapiens, UniProt P08183); experiment: Cell proliferation assay: Pgp-modulating activity, reversal of anticancer drug resistance in LCC6MDR cells; details: for EC50: EC50 of compounds for reversing anticancer drug resistance (nM); for EC50 / RF (Relative Fold), cpd at 0.5 μM / RF (Relative Fold), cpd at 1 μM: LCC6MDR; for Therapeutic index: IC50 of compounds for L929/EC50 of compounds for lowering paclitaxel drug resistance; for RF (Relative Fold), cpd at 0.5 μM: RF = (IC50 without modulator)/(IC50 with 0.5 μM modulator); for RF (Relative Fold), cpd at 0.5 μM / RF (Relative Fold), cpd at 1 μM: paclitaxel; for RF (Relative Fold), cpd at 1 μM: RF = (IC50 without modulator)/(IC50 with 1.0 μM modulator)
Sequence of Pgp (LCC6MDR cells) (P08183 whole entry): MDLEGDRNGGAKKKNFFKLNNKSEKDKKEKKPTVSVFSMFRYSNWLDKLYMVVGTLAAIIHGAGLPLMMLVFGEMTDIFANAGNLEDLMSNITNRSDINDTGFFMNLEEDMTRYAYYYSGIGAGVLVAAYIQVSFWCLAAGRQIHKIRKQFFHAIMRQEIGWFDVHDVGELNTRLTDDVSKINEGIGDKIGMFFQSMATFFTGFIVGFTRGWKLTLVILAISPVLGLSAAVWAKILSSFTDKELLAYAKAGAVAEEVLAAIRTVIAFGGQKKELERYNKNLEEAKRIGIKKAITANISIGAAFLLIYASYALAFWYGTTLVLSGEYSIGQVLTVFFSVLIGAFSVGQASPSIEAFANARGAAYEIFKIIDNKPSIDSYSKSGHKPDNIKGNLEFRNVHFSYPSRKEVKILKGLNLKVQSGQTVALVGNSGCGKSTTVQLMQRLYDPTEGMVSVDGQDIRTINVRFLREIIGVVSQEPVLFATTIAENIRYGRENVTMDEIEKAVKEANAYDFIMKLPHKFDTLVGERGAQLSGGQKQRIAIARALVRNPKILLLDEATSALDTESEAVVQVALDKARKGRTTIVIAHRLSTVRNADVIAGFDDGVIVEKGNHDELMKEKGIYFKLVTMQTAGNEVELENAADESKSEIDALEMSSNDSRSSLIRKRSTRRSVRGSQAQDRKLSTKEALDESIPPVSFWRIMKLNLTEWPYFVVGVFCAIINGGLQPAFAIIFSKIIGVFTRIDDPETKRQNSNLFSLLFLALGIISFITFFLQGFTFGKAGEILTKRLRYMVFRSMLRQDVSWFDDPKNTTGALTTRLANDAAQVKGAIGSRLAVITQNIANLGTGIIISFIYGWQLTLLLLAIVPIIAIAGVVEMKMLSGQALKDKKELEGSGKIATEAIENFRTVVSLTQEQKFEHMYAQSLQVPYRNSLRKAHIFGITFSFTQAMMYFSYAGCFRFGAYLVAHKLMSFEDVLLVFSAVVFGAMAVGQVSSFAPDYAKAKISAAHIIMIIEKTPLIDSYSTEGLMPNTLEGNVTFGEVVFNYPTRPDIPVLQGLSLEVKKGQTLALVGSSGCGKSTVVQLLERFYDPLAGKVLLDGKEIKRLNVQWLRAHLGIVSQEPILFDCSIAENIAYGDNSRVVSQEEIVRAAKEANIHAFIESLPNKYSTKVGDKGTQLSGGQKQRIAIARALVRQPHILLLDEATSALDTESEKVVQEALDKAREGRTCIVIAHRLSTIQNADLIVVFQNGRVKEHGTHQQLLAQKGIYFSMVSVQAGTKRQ
Experimental: Cell Proliferation Assay. 6,000 cells of LCC6 or LCC6MDR and anticancer drugs (paclitaxel, vinblastine, vincristine, doxorubicin and mitoxantrone) were mixed with or without modulators to a final volume of 200 μL in each well of 96-well plates. […] The plates were then incubated for 5 days at 37° C. […] IC50 values were calculated from the dose-response curves of MTS assays (Prism 4.0).

[4] = tested on: LdAG83 promastigotes (wild type); experiment: In vitro anti-promastigote activity, LdAG83; assay type: cell-based, Leishmania donovani; details: Leishmania donovani, 72 h, read-out: Anti-promastigotes activity (IC50, μM) LdAG83
Experimental: (§2) Cell Lines and Cell Culture. Promastigotes of Leishmania donovani (wild type LdAG83, pentamidine-resistant LdAG83-PentR50, and SSG-resistant Ld39) and Leishmania major [MHOM/IL/67/JERICHO II (Lm50122), from ATCC] were used in this study.
(§3) In Vitro Anti-Promastigote Activity. The viability of promastigotes was determined by the Cell Titer 96° Aqueous Assay (Promega) that employs a tetrazolium compound (MTS, 2-(4,5-Dimethylthiazol-2-yl-)-5-[3-(carboxymethoxy)phenyl]-2-(4-sulfophenyl)-2H-tetrazolium) and electron coupling reagent, phenazine methosulfate (PMS).^7 Promastigotes were seeded into 96-well flat bottom microtiter plate at 1×10^5 cells per well in a final volume of 100 μL medium and incubated with a series concentration of synthetic flavonoid dimers or known antileishmanials. The parasites were incubated at 27° C. for 72 hrs. Fresh solution of 2 mg/mL MTS and 0.92 mg/mL PMS were prepared in a ratio of 20:1 (MTS:PMS). After 72 hrs incubation, 10 μL of MTS:PMS mixture was added into each well of microtiter plate. The plate was then incubated at 27° C. for 4 hrs for color development. After 4 hrs incubation, the OD values were determined at 490 nm using automatic microtiter plate reader (Bio-Rad).

[5] = tested on: Ld39 promastigotes (SSG-resistant); experiment: In vitro anti-promastigote activity, Ld39; assay type: cell-based, Leishmania donovani; details: Leishmania donovani, 72 h, read-out: Anti-promastigotes activity (IC50, μM) Ld39
Experimental: as §2, §3

Raw264.7 cells = experiment: Cytotoxicity, mouse macrophage Raw264.7; assay type: cell-based; details: Mus musculus, RAW264.7, 72 h
Experimental: (a) Mouse Macrophage Raw 264.7 and Primary Mouse PEM Cells. The cytotoxicity assay of reference antileishmanial compounds and the compounds of this invention was performed against mouse macrophage cell line, Raw 264.7 and primary mouse PEM cells in order to calculate the therapeutic index (IC50 value for cytotoxicity of the compounds divided by IC50 value for antileishmanial activity of the compounds). The cells were grown in supplemented DMEM media in an atmosphere of 95% air with 5% CO2 at 37° C. In brief, Raw264.7 cells and PEM cells were seeded into 96-well flat bottom microtiter plate at 1×10^4cells and 2×10^4 cells per well in a final volume of 100 μL media, respectively. A graded dose of flavonoid dimers or antileishmanials was added into wells. The plate was incubated at 37° C. for 72 hrs at the atmosphere 5% CO2 in the air. The % of survivors was determined.

Row | SMILES | IC50 at 72 h [1] [µM] | IC50 at 72 h [2] [µM] | IC50 at 72 h [3] [µM] | melting point [°C] | EC50 (Pgp (LCC6MDR cells); Paclitaxel) [nM] | Therapeutic index (Pgp (LCC6MDR cells)) | RF (Relative Fold), cpd at 0.5 μM (Pgp (LCC6MDR cells)) | RF (Relative Fold), cpd at 1 μM (Pgp (LCC6MDR cells)) | IC50 [4] [µM] | IC50 [5] [µM] | IC50 (Raw264.7 cells) [µM] | EC50 (Pgp (LCC6MDR cells); Daunorubicin) [nM] | EC50 (Pgp (LCC6MDR cells); Doxorubicin) [nM] | EC50 (Pgp (LCC6MDR cells); Mitoxantrone) [nM] | EC50 (Pgp (LCC6MDR cells); Vinblasinte, vinblastine) [nM] | EC50 (Pgp (LCC6MDR cells); Vincristine) [nM]
1 | O=c1cc(-c2ccc(OCCOCCN(CCOCCOc3ccc(-c4cc(=O)c5ccccc5o4)cc3)Cc3ccc4c(c3)OCO4)cc2)oc2ccccc12 [Compound 42e, 1,13-Bis[4′-(4H-chromen-4-on-2-yl)phenyl]-7-(5-piperonyl)-1,4,10,13-tetraoxa-7-azamidecane] | > 100 | > 100 | > 100 | 69 to 70 | 204 ± 20 | >490.2 | (31.2) | (117.8) |  |  |  |  |  |  |  | 
2 | CN(C)c1cccc2c(S(=O)(=O)N(CCOCCOc3ccc(-c4cc(=O)c5ccccc5o4)cc3)CCOCCOc3ccc(-c4cc(=O)c5ccccc5o4)cc3)cccc12 [Compound 25b, 1,13-Bis[4′-(4H-chromen-4-on-2-yl)phenyl]-7-(dansyl)-1,4,10,13-tetraoxa-7-azamidecane] | > 100 | > 100 |  | 72 to 74 |  |  | (1.4) |  |  |  |  |  |  |  |  | 
3 | O=c1cc(-c2ccc(OCCOCCN(CCOCCOc3ccc(-c4cc(=O)c5ccccc5o4)cc3)Cc3ccc(Cl)cc3)cc2)oc2ccccc12 [Compound 49, 1,13-Bis[4′-(4H-chromen-4-on-2-yl)phenyl]-7-(4-chlorobenzyl)-1,4,10,13-tetraoxa-7-azamidecane] | > 100 | > 100 | > 78 | 81 to 82 | 177 ± 14 | >440.7 | (41.4) | (95.7) |  |  |  |  |  |  |  | 
4 | O=c1cc(-c2ccc(OCCOCCN(CCOCCOc3ccc(-c4cc(=O)c5ccccc5o4)cc3)Cc3ccc(F)c(F)c3)cc2)oc2ccccc12 [Compound 38, 1,13-Bis[4′-(4H-chromen-4-on-2-yl)phenyl]-7-(3,4-difluorobenzyl)-1,4,10,13-tetraoxa-7-azamidecane] | 33.6 ± 4.3 | 32.5 ± 11 | 42.2 ± 2.1 | 96 to 98 |  |  | (49.3) |  |  |  |  |  |  |  |  | 
5 | O=c1cc(-c2ccc(OCCOCCN(CCOCCOc3ccc(-c4cc(=O)c5ccccc5o4)cc3)Cc3cccc4ccccc34)cc2)oc2ccccc12 [Compound 59, 1,13-Bis[4′-(4H-chromen-4-on-2-yl)phenyl]-7-(1-naphthalenylmethyl)-1,4,10,13-tetraoxa-7-azamidecane] | > 100 | > 100 | > 100 | 96 to 97 |  |  | (2.2) | (80.6) |  |  |  |  |  |  |  | 
6 | O=c1cc(-c2ccc(OCCOCCN(CCCc3ccccc3)CCOCCOc3ccc(-c4cc(=O)c5ccccc5o4)cc3)cc2)oc2ccccc12 [Compound 26, 1,13-Bis[4′-(4H-chromen-4-on-2-yl)phenyl]-N-(3-phenylpropyl)-1,4,10,13-tetraoxa-7-azamidecane] | > 100 | > 100 | 9.5 |  | 250 | 38.0 | (12.5) |  | 8.9 | 18.4 | 85 |  |  |  |  | 
7 | Cc1ccccc1CN(CCOCCOc1ccc(-c2cc(=O)c3ccccc3o2)cc1)CCOCCOc1ccc(-c2cc(=O)c3ccccc3o2)cc1 [Compound 46, 1,13-Bis[4′-(4H-chromen-4-on-2-yl)phenyl]-7-(2-methylbenzyl)-1,4,10,13-tetraoxa-7-azamidecane] | > 100 | > 100 | > 100 |  |  |  | (32.6) | (117.8) |  |  |  |  |  |  |  | 
8 | CS(=O)(=O)N(CCOCCOc1ccc(-c2cc(=O)c3ccccc3o2)cc1)CCOCCOc1ccc(-c2cc(=O)c3ccccc3o2)cc1 [Compound 24, 1,13-Bis[4′-(4H-chromen-4-on-2-yl)phenyl]-N-(methanesulfonyl)-1,4,10,13-tetraoxa-7-azamidecane] | 42.6 ± 5.4 | 27.5 ± 8.4 | 13.4 ± 3.9 |  |  |  | (12.8) |  | 0.5 | 1.5 | 96 ± 4 |  |  |  |  | 
9 | CCc1ccc(CN(CCOCCOc2ccc(-c3cc(=O)c4ccccc4o3)cc2)CCOCCOc2ccc(-c3cc(=O)c4ccccc4o3)cc2)cc1 [Compound 53, 1,13-Bis[4′-(4H-chromen-4-on-2-yl)phenyl]-7-(4-ethylbenzyl)-1,4,10,13-tetraoxa-7-azamidecane] | > 100 | > 100 | 25.4 ± 8.1 |  |  |  | (23.9) | (69.6) |  |  |  |  |  |  |  | 
10 | O=c1cc(-c2ccc(OCCOCCN(CCOCCOc3ccc(-c4cc(=O)c5ccccc5o4)cc3)Cc3ccc(OC(F)(F)F)cc3)cc2)oc2ccccc12 [Compound 42b, 1,13-Bis[4′-(4H-chromen-4-on-2-yl)phenyl]-7-(4-trifluoromethoxybenzyl)-1,4,10,13-tetraoxa-7-azamidecane] | > 100 | > 100 | > 83 |  |  |  | (3.8) | (47.8) |  |  |  |  |  |  |  | 
11 | O=c1cc(-c2ccc(OCCOCCN(CCOCCOc3ccc(-c4cc(=O)c5ccccc5o4)cc3)Cc3nc4ccccc4[nH]3)cc2)oc2ccccc12 [Compound 60, 1,13-Bis[4′-(4H-chromen-4-on-2-yl)phenyl]-7-(2-benzimidazolylmethyl)-1,4,10,13-tetraoxa-7-azamidecane] | > 100 | > 100 | > 70 |  |  |  | (21.9) | (117.8) |  |  |  |  |  |  |  | 
12 | COc1ccc(CN(CCOCCOc2ccc(-c3cc(=O)c4ccccc4o3)cc2)CCOCCOc2ccc(-c3cc(=O)c4ccccc4o3)cc2)cc1 [Compound 42a, 1,13-Bis[4′-(4H-chromen-4-on-2-yl)phenyl]-7-(4-methoxybenzyl)-1,4,10,13-tetraoxa-7-azamidecane] | > 100 | > 91 | > 100 |  | 104 ± 7 | >961.5 | (61.2) | (117.8) |  |  |  | 61 ± 6 | 63 ± 8 | 96 ± 27 | 94 ± 13 | 98 ± 5
13 | O=c1cc(-c2ccc(OCCOCCNCCOCCOc3ccc(-c4cc(=O)c5cc(F)ccc5o4)cc3)cc2)oc2ccc(F)cc12 [Compound 12f, 1,13-Bis[4′-((6-fluoro)-4H-chromen-4-on-2-yl)phenyl]-1,4,10,13-tetraoxa-7-azamidecane] | 3.3 ± 0.5 | 5.3 ± 1 | 5.7 ± 0.4 |  |  |  | (72.9) | (109.4) |  |  |  |  |  |  |  | 
14 | O=c1cc(-c2ccc(OCCOCCN(CCOCCOc3ccc(-c4cc(=O)c5ccccc5o4)cc3)Cc3cccc(Cl)c3)cc2)oc2ccccc12 [Compound 48, 1,13-Bis[4′-(4H-chromen-4-on-2-yl)phenyl]-7-(3-chlorobenzyl)-1,4,10,13-tetraoxa-7-azamidecane] | > 98 | > 100 | > 100 |  |  |  | (19.6) | (80.6) |  |  |  |  |  |  |  | 
